Measurements published in ChEMBL document CHEMBL1146992, “Identification of potent phenyl imidazoles as opioid receptor agonists” (Bioorg Med Chem Lett, 2006).

Columns and labels:
[1] = molecular target: Opioid receptors; mu & delta (Rattus norvegicus) (UniProt P33533+P33535); test: Selectivity for delta opioid receptor over mu opioid receptor; assay type: protein assay
[2] = molecular target: Delta-type opioid receptor (Rattus norvegicus, UniProt P33533); test: Displacement of [3H]DPDPE from delta opioid receptor in rat brain; assay type: tissue-based
Sequence of Delta-type opioid receptor (Rattus norvegicus, UniProt P33533) (P33533 whole entry): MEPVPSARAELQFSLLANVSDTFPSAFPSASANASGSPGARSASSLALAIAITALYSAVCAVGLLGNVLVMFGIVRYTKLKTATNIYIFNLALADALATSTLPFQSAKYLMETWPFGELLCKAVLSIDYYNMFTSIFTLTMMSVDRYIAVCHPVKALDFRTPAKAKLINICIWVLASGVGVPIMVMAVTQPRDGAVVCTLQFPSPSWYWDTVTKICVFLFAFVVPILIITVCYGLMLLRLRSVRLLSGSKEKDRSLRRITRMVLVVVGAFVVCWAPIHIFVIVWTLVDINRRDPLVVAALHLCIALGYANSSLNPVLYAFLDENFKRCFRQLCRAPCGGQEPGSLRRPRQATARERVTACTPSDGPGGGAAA

Mu-type opioid receptor [3] = molecular target: Mu-type opioid receptor (Rattus norvegicus, UniProt P33535); test: Displacement of [3H]DAMGO from mu opioid receptor in rat brain; assay type: tissue-based
Sequence of Mu-type opioid receptor (Rattus norvegicus, UniProt P33535) (P33535 whole entry): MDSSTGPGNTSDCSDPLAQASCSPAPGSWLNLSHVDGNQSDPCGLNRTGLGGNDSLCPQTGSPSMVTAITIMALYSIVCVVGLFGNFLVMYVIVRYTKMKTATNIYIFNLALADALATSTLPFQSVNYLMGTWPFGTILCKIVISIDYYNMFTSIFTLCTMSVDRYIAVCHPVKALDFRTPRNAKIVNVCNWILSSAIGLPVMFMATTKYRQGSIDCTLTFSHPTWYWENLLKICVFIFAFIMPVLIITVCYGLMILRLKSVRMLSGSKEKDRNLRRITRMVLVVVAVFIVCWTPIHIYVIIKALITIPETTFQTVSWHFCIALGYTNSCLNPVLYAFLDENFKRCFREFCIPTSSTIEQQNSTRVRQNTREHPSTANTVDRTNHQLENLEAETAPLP

[4] = molecular target: Delta-type opioid receptor (Mus musculus, UniProt P32300); test: Activity against delta opioid receptor by stimulation of [35S]GTP-gamma-S binding in CHO-hgamma cells; assay type: functional, cell-based
Sequence of Delta-type opioid receptor (Mus musculus, UniProt P32300) (P32300 whole entry): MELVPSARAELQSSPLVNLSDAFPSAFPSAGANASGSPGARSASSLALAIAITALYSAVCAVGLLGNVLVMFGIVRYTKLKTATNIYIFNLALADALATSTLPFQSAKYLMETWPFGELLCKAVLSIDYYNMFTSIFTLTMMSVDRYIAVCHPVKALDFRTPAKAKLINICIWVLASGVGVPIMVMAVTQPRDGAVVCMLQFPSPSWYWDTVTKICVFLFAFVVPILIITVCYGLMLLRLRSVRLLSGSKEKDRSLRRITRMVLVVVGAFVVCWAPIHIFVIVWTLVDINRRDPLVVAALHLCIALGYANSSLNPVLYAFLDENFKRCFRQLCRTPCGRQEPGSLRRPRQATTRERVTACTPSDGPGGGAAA

Mu-type opioid receptor [5] = molecular target: Mu-type opioid receptor (Cavia porcellus, UniProt P97266); test: Activity against mu opioid receptor by stimulation of [35S]GTP-gamma-S binding in CHO-hgamma cells; assay type: functional, cell-based
Sequence of Mu-type opioid receptor (Cavia porcellus, UniProt P97266) (P97266 whole entry): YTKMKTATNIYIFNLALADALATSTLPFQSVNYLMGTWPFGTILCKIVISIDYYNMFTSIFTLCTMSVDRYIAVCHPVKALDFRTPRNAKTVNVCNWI

Sequence of Opioid receptors; mu & delta (Rattus norvegicus) (P33533 whole entry, looked up): as the sequence (P33533 whole entry) above
Sequence of Opioid receptors; mu & delta (Rattus norvegicus) (P33535 whole entry, looked up): as the sequence (P33535 whole entry) above

Row | SMILES | Ratio Ki [1] | Ki [2] [nM] | Ki (Mu-type opioid receptor [3]) [nM] | EC50 [4] [nM] | EC50 (Mu-type opioid receptor [5]) [nM]
1 | N[C@@H](Cc1ccc(C(=O)O)cc1)C(=O)N1Cc2ccccc2C[C@H]1c1nc(-c2ccccc2)c[nH]1 | 1.1 | 5200 | 5800 |  | 
2 | Cc1[nH]c([C@@H]2Cc3ccccc3CN2C(=O)[C@@H](N)Cc2ccc(O)cc2)nc1-c1ccccc1 | 75 |  |  |  | 
3 | Cc1cc(O)cc(C)c1C[C@H](N)C(=O)N1Cc2ccccc2C[C@H]1c1nc(C)c(-c2ccccc2)[nH]1 | 3.2 |  |  |  | 
4 | N[C@@H](Cc1ccccc1)C(=O)N1Cc2ccccc2C[C@H]1c1nc(-c2ccccc2)c[nH]1 | 1.7 | 266 | 443 |  | 
5 | Cc1[nH]c([C@@H]2CCCCN2C(=O)[C@@H](N)Cc2ccc(O)cc2)nc1-c1ccccc1 | 0.1 |  |  | 500 | 142
6 | N[C@@H](Cc1ccc(O)cc1)C(=O)N1Cc2ccccc2C[C@H]1c1nc(-c2ccccc2)c[nH]1 | 63 |  |  | 19 | 
7 | N[C@@H](Cc1ccc(O)cc1)C(=O)N1CCCC[C@H]1c1nc(-c2ccccc2)c[nH]1 | 0.02 | 198 | 3.8 |  | 
8 | N[C@@H](Cc1ccc(S(N)(=O)=O)cc1)C(=O)N1Cc2ccccc2C[C@H]1c1nc(-c2ccccc2)c[nH]1 | 3.4 |  |  |  | 
9 | NC(=O)c1ccc(C[C@H](N)C(=O)N2CCCC[C@H]2c2nc(-c3ccccc3)c[nH]2)cc1 | 0.02 |  | 1.2 | 730 | 100
10 | COc1ccc(C[C@H](N)C(=O)N2Cc3ccccc3C[C@H]2c2nc(C)c(-c3ccccc3)[nH]2)cc1 | 6.4 |  |  |  | 
11 | Cc1cc(O)cc(C)c1C[C@H](N)C(=O)N1Cc2ccccc2C[C@H]1c1nc(-c2ccccc2)c[nH]1 | 3.2 | 0.1 | 0.3 | 0.9 | 27
12 | CC(=O)Nc1ccc(C[C@H](N)C(=O)N2Cc3ccccc3C[C@H]2c2nc(C)c(-c3ccccc3)[nH]2)cc1 | 6 |  |  |  | 
13 | N[C@@H](Cc1ccccc1)C(=O)N1CCCC[C@H]1c1nc(-c2ccccc2)c[nH]1 | 0.02 | 1130 | 18 |  | 
14 | Cc1[nH]c([C@@H]2Cc3ccccc3CN2C(=O)[C@@H](N)Cc2ccc(F)cc2)nc1-c1ccccc1 | 19 |  |  |  | 
15 | CS(=O)(=O)Nc1ccc(C[C@H](N)C(=O)N2Cc3ccccc3C[C@H]2c2nc(-c3ccccc3)c[nH]2)cc1 | 1 | 342 | 356 |  | 
16 | Cc1[nH]c([C@@H]2Cc3ccccc3CN2C(=O)[C@@H](N)Cc2ccccc2)nc1-c1ccccc1 | 8 | 236 | 1830 |  | 
17 | Cc1cc(C(N)=O)cc(C)c1C[C@H](N)C(=O)N1Cc2ccccc2C[C@H]1c1nc(-c2ccccc2)c[nH]1 |  |  | 1.4 | 22 | 161
18 | Cc1cc(O)cc(C)c1C[C@H](N)C(=O)N1CCCC[C@H]1c1nc(-c2ccccc2)c[nH]1 | 0.03 | 1.9 | 0.05 | 37 | 2
19 | N[C@@H](Cc1ccc(CO)cc1)C(=O)N1Cc2ccccc2C[C@H]1c1nc(-c2ccccc2)c[nH]1 | 2 | 466 | 912 |  | 
20 | N[C@@H](Cc1ccc(Cl)cc1)C(=O)N1Cc2ccccc2C[C@H]1c1nc(-c2ccccc2)c[nH]1 | 4.6 |  |  |  | 
21 | Cc1cc(O)cc(C)c1C[C@H](N)C(=O)N1Cc2ccccc2C[C@H]1c1nc(-c2ccccc2)c(C)[nH]1 |  | 0.1 | 0.3 |  | 
22 | Cc1cc(C(N)=O)cc(C)c1C[C@H](N)C(=O)N1CCCC[C@H]1c1nc(-c2ccccc2)c[nH]1 |  | 14 | 0.13 | 135 | 9
23 | NC(=O)c1ccc(C[C@H](N)C(=O)N2Cc3ccccc3C[C@H]2c2nc(-c3ccccc3)c[nH]2)cc1 | 18.4 | 1.3 | 23 | 3 | 155
24 | Cc1[nH]c([C@@H]2Cc3ccccc3CN2C(=O)[C@@H](N)Cc2ccc(N)cc2)nc1-c1ccccc1 | 9 |  |  |  | 
25 | Cc1[nH]c([C@@H]2Cc3ccccc3CN2C(=O)[C@@H](N)Cc2ccc(C#N)cc2)nc1-c1ccccc1 | 1.8 | 752 | 1340 |  | 
26 | CC(=O)c1ccc(C[C@H](N)C(=O)N2Cc3ccccc3C[C@H]2c2nc(-c3ccccc3)c[nH]2)cc1 | 14 | 30 |  |  | 
